The term melting point denotes the temperature, or range, at which the solid turns liquid.

SMILES strings stand for the structures.

As for `Cc1cc2c(cc1-c1ccc(F)cc1)NC(=O)CC(c1cccc(-n3ccnc3)c1)=N2` [Example 53, 8-(4-Fluoro-phenyl)-4-(3-imidazol-1-yl-phenyl)-7-methyl-1,3-dihydro-benzo[b][1,4]diazepin-2-one], the melting point came out at 196 °C.

The compound `O=C1CC(c2cccc(-n3ccnc3)c2)=Nc2cc(Cl)c(-c3ccc(F)cc3)cc2N1` [Example 56, 7-Chloro-8-(4-fluoro-phenyl)-4-(3-imidazol-1-yl-phenyl)-1,3-dihydro-benzo[b][1,4]diazepin-2-one] gave a melting point of 209 to 211 °C. The result for `COCCOc1cc2c(cc1-c1ccc(F)cc1)NC(=O)CC(c1cccc(-n3ccnc3)c1)=N2` [Example 57, 8-(4-Fluoro-phenyl)-4-(3-imidazol-1-yl-phenyl)-7-(2-methoxy-ethoxy)-1,3-dihydro-benzo[b][1,4]diazepin-2-one] reads 196 to 197 °C; that for `O=C1CC(c2cccc(-n3ccnc3)c2)=Nc2cc(OCCO)c(-c3ccc(F)cc3)cc2N1` [Example 58, 8-(4-Fluoro-phenyl)-7-(2-hydroxy-ethoxy)-4-(3-imidazol-1-yl-phenyl)-1,3-dihydro-benzo[b][1,4]diazepin-2-one], 225 °C; that for `O=C1CC(c2cccc(-n3ccnc3)c2)=Nc2cc(N3CCOC3=O)c(-c3ccc(F)cc3)cc2N1` [Example 59, 8-(4-Fluoro-phenyl)-4-(3-imidazol-1-yl-phenyl)-7-(2-oxo-oxazolidin-3-yl)-1,3-dihydro-benzo[b][1,4]diazepin-2-one], 230 °C. Next, `COc1cc2c(cc1-c1ccc(F)cc1C)NC(=O)CC(c1cccc(-n3ccnc3)c1)=N2` [Example 60, 8-(4-Fluoro-2-methyl-phenyl)-4-(3-imidazol-1-yl-phenyl)-7-methoxy-1,3-dihydro-benzo[b][1,4]diazepin-2-one]: 225 °C; `O=C1CC(c2cccc(-n3ccnc3)c2)=Nc2cc(N3CC[C@@H](O)C3)c(-c3ccc(F)cc3)cc2N1` [Example 63, 8-(4-Fluoro-phenyl)-7-((R)-3-hydroxy-pyrrolidin-1-yl)-4-(3-imidazol-1-yl-phenyl)-1,3-dihydro-benzo[b][1,4]diazepin-2-one]: 155 to 158 °C; `COc1cc2c(cc1-c1ccccc1F)NC(=O)CC(c1cccc(-n3ccnc3)c1)=N2` [Example 64, 8-(2-Fluoro-phenyl)-4-(3-imidazol-1-yl-phenyl)-7-methoxy-1,3-dihydro-benzo[b][1,4]diazepin-2-one]: 216 °C (dec.). On to `N#Cc1cccc(C2=Nc3cc(O)c(-c4ccc(F)cc4)cc3NC(=O)C2)c1` [Example 65, 3-[7-(4-Fluoro-phenyl)-8-hydroxy-4-oxo-4,5-dihydro-3H-benzo[b][1,4]diazepin-2-yl]-benzonitrile], for which the melting point was greater than 250 °C. `N#Cc1cccc(C2=Nc3cc(O)c(-c4ccccc4F)cc3NC(=O)C2)c1` [Example 66, 3-[7-(2-Fluoro-phenyl)-8-hydroxy-4-oxo-4,5-dihydro-3H-benzo[b][1,4]diazepin-2-yl]-benzonitrile] displayed a melting point greater than 250 °C. The result for `COc1cc2c(cc1-c1ccccc1F)NC(=O)CC(c1cccc(C#N)c1)=N2` [Example 67, 3-[7-(2-Fluoro-phenyl)-8-methoxy-4-oxo-4,5-dihydro-3H-benzo[b][1,4]diazepin-2-yl]-benzonitrile] reads 245 to 247 °C; that for `COc1cc2c(cc1-c1ccccc1F)NC(=O)CC(c1cccc(-n3cnnc3)c1)=N2` [Example 70, 8-(2-Fluoro-phenyl)-7-methoxy-4-(3-[1,2,4]triazol-4-yl-phenyl)-1,3-dihydro-benzo[b][1,4]diazepin-2-one], 188 °C (dec.); that for `COc1cc2c(cc1-c1ccccc1F)NC(=O)CC(c1cc(C#N)ccc1F)=N2` [Example 73, 4-Fluoro-3-[7-(2-fluoro-phenyl)-8-methoxy-4-oxo-4,5-dihydro-3H-benzo[b][1,4]diazepin-2-yl]-benzonitrile], greater than 250 °C. The result for `N#Cc1cc(C2=Nc3cc(O)c(-c4ccc(F)cc4)cc3NC(=O)C2)ccn1` [Example 74, 4-[7-(4-Fluoro-phenyl)-8-hydroxy-4-oxo-4,5-dihydro-3H-benzo[b][1,4]diazepin-2-yl]-pyridine-2-carbonitrile] reads 164 °C; that for `N#Cc1cccc(C2=Nc3cc(N4CCC5(CC4)OCCO5)c(-c4ccccc4F)cc3NC(=O)C2)c1` [Example 76, 3-[8-(1,4-Dioxa-8-aza-spiro[4.5]dec-8-yl)-7-(2-fluoro-phenyl)-4-oxo-4,5-dihydro-3H-benzo[b][1,4]diazepin-2-yl]-benzonitrile], 253 °C. The compound `O=C1CC(c2cccc(-n3ccnc3)c2)=Nc2cc(N3CCC4(CC3)OCCO4)c(-c3ccccc3F)cc2N1` [Example 77, 7-(1,4-Dioxa-8-aza-spiro[4.5]dec-8-yl)-8-(2-fluoro-phenyl)-4-(3-imidazol-1-yl-phenyl)-1,3-dihydro-benzo[b][1,4]diazepin-2-one] registered a melting point of 225 °C. The result for `O=C1CCN(c2cc3c(cc2-c2ccccc2F)NC(=O)CC(c2cccc(-n4ccnc4)c2)=N3)CC1` [Example 78, 8-(2-Fluoro-phenyl)-4-(3-imidazol-1-yl-phenyl)-7-(4-oxo-piperidin-1-yl)-1,3-dihydro-benzo[b][1,4]diazepin-2-one] reads 230 °C. Next, `N#Cc1cc(C2=Nc3cc(O)c(-c4ccccc4F)cc3NC(=O)C2)ccn1` [Example 80, 4-[7-(2-Fluoro-phenyl)-8-hydroxy-4-oxo-4,5-dihydro-3H-benzo[b][1,4]diazepin-2-yl]-pyridine-2-carbonitrile]: greater than 250 °C. On to `COc1cc2c(cc1-c1cc(F)ccc1F)NC(=O)CC(c1cccc(C#N)c1)=N2` [Example 82, 3-[7-(2,5-Difluoro-phenyl)-8-methoxy-4-oxo-4,5-dihydro-3H-benzo[b][1,4]diazepin-2-yl]-benzonitrile], for which the melting point worked out at 251 °C.

The compound `N#Cc1ccsc1C1=CC(=O)Nc2cc(-c3ccccc3F)c(O)cc2N1` [Example 84, 2-[7-(2-Fluoro-phenyl)-8-hydroxy-4-oxo-4,5-dihydro-1H-benzo[b][1,4]diazepin-2yl]-thiophene-3-carbonitrile] registered a melting point of 242 °C. Turning to `O=C1CC(c2cccc(-n3ccnn3)c2)=Nc2cc(O)c(-c3ccc(F)cc3)cc2N1` [Example 86, 8-(4-Fluoro-phenyl)-7-hydroxy-4-(3-[1,2,3]triazol-1-yl-phenyl)-1,3-dihydro-benzo[b][1,4]diazepin-2-one], the melting point is greater than 250 °C. The result for `COCCOc1cc2c(cc1-c1ccccc1F)NC(=O)CC(c1cccc(C#N)c1)=N2` [Example 87, 3-[7-(2-Fluoro-phenyl)-8-(2-methoxy-ethoxy)-4-oxo-4,5-dihydro-3H-benzo[b][1,4]diazepin-2-yl]-benzonitrile] reads 211 to 213 °C.

In turn, `N#Cc1cccc(C2=Nc3cc(CO)c(-c4ccccc4F)cc3NC(=O)C2)c1` [Example 88, 3-[7-(2-Fluoro-phenyl)-8-hydroxymethyl-4-oxo-4,5-dihydro-3H-benzo[b][1,4]diazepin-2-yl]-benzonitrile] had a melting point of 90 to 91 °C.
